Measurements from paper PMC11178787, “Development of a natural product optimization strategy for inhibitors against MraY, a promising antibacterial target” (Nature Communications, 2024).
Values after ≈ are worked out from the molar mass of the structure shown. Read-outs that look alike come from different tables or passages of the source.

Assays:
S. aureus ATCC 29213 = system: T1, S. aureus ATCC 29213; experiment: microbe, parasite or virus in culture; design: CLSI broth microdilution MIC in MHB-II, single trial; conditions: Staphylococcus aureus, ATCC29213, 18 h
T1 construct: ATCC 29213
Method: (§1) MICs were determined by a microdilution broth method as recommended by the CLSI with MHB-II. For MICs of stable analogues, a 2-fold dilution of each compound was prepared in DMSO at 100-fold of the final concentration. The strains were inoculated with 5 × 10^5 cfu/mL in 96-well plates (each 100 μL/well), and 1 μL of DMSO solutions of the samples were added (contained less than 1% DMSO). The plates were incubated at 37 °C for 18 h and then MICs were determined. MICs of stable analogues in Table 1 were the highest value in three trials. MICs in Supplementary Table 1 were determined in one trial.

[1] = system: T2, E. faecalis(VRE) ATCC 51299; experiment: microbe, parasite or virus in culture; design: CLSI broth microdilution MIC in MHB-II, single trial; conditions: Enterococcus faecalis, 18 h
T2 construct: ATCC 51299 (VRE)
Method: as §1

[2] = system: T3, E. faecium(VRE) ATCC 51858; experiment: microbe, parasite or virus in culture; design: CLSI broth microdilution MIC in MHB-II, single trial; conditions: Enterococcus faecium, 18 h
T3 construct: ATCC 51858 (VRE)
Method: as §1

[3] = system: T4, E. faecium(VRE) ATCC 51559; experiment: microbe, parasite or virus in culture; design: CLSI broth microdilution MIC in MHB-II, single trial; conditions: Enterococcus faecium, 18 h
T4 construct: ATCC 51559 (VRE)
Method: as §1

E. faecium ATCC 35667 = system: T5, E. faecium ATCC 35667; experiment: microbe, parasite or virus in culture; design: CLSI broth microdilution MIC in MHB-II, single trial; conditions: Enterococcus faecium, ATCC35667, 18 h
T5 construct: ATCC 35667
Method: as §1

[4] = system: T6, Staphylococcus aureus MRSA JE2; experiment: microbe, parasite or virus in culture; design: CLSI broth microdilution MIC in MHB-II, single trial; conditions: 18 h
T6 construct: JE2 (MRSA)
Method: as §1

[5] = system: T7, Staphylococcus aureus #2932; experiment: microbe, parasite or virus in culture; design: CLSI broth microdilution MIC in MHB-II; conditions: Staphylococcus aureus, 18 h, read-out: MIC
T7 construct: #2932
Method: as §1

[6] = system: T8, Staphylococcus aureus #2934; experiment: microbe, parasite or virus in culture; design: CLSI broth microdilution MIC in MHB-II; conditions: Staphylococcus aureus, 18 h, read-out: MIC
T8 construct: #2934
Method: as §1

Enterococcus faecalis 27 = system: T9, Enterococcus faecalis 27; experiment: microbe, parasite or virus in culture; design: CLSI broth microdilution MIC in MHB-II; conditions: Enterococcus faecalis, 27, 18 h, read-out: MIC
T9 construct: 27
Method: as §1

Enterococcus faecalis 21 = system: T10, Enterococcus faecalis 21; experiment: microbe, parasite or virus in culture; design: CLSI broth microdilution MIC in MHB-II; conditions: Enterococcus faecalis, 21, 18 h, read-out: MIC
T10 construct: 21
Method: as §1

Enterococcus faecium 7 = experiment: microbe, parasite or virus in culture; design: CLSI broth microdilution MIC in MHB-II; conditions: Enterococcus faecium, 7, 18 h, read-out: MIC
Method: as §1

Enterococcus faecalis 25 = system: T11, Enterococcus faecalis 25; experiment: microbe, parasite or virus in culture; design: CLSI broth microdilution MIC in MHB-II; conditions: Enterococcus faecalis, 25, 18 h, read-out: MIC
T11 construct: 25
Method: as §1

Enterococcus faecalis 29 = system: T12, Enterococcus faecalis 29; experiment: microbe, parasite or virus in culture; design: CLSI broth microdilution MIC in MHB-II; conditions: Enterococcus faecalis, 29, 18 h, read-out: MIC
T12 construct: 29
Method: as §1

Enterococcus faecalis 30 = system: T13, Enterococcus faecalis 30; experiment: microbe, parasite or virus in culture; design: CLSI broth microdilution MIC in MHB-II; conditions: Enterococcus faecalis, 30, 18 h, read-out: MIC
T13 construct: 30
Method: as §1

Enterococcus faecium 9 = experiment: microbe, parasite or virus in culture; design: CLSI broth microdilution MIC in MHB-II; conditions: Enterococcus faecium, 9, 18 h, read-out: MIC
Method: as §1

Enterococcus faecium 8 = experiment: microbe, parasite or virus in culture; design: CLSI broth microdilution MIC in MHB-II; conditions: Enterococcus faecium, 8, 18 h, read-out: MIC
Method: as §1

[7] = system: T14, Staphylococcus aureus #2110; experiment: microbe, parasite or virus in culture; design: CLSI broth microdilution MIC in MHB-II; conditions: Staphylococcus aureus, 18 h, read-out: MIC
T14 construct: #2110
Method: as §1

Enterococcus faecalis 28 = system: T15, Enterococcus faecalis 28; experiment: microbe, parasite or virus in culture; design: CLSI broth microdilution MIC in MHB-II; conditions: Enterococcus faecalis, 28, 18 h, read-out: MIC
T15 construct: 28
Method: as §1

[8] = system: T16, Staphylococcus aureus #2334; experiment: microbe, parasite or virus in culture; design: CLSI broth microdilution MIC in MHB-II; conditions: Staphylococcus aureus, 18 h, read-out: MIC
T16 construct: #2334
Method: as §1

Enterococcus faecium 10 = system: T17, Enterococcus faecium 10; experiment: microbe, parasite or virus in culture; design: CLSI broth microdilution MIC in MHB-II; conditions: Enterococcus faecium, 10, 18 h, read-out: MIC
T17 construct: 10
Method: as §1

Enterococcus faecalis 26 = system: T18, Enterococcus faecalis 26; experiment: microbe, parasite or virus in culture; design: CLSI broth microdilution MIC in MHB-II; conditions: Enterococcus faecalis, 26, 18 h, read-out: MIC
T18 construct: 26
Method: as §1

Enterococcus faecium 1 = experiment: microbe, parasite or virus in culture; design: CLSI broth microdilution MIC in MHB-II; conditions: Enterococcus faecium, 1, 18 h, read-out: MIC
Method: as §1

[9] = system: T19, Staphylococcus aureus #2933; experiment: microbe, parasite or virus in culture; design: CLSI broth microdilution MIC in MHB-II; conditions: Staphylococcus aureus, 18 h, read-out: MIC
T19 construct: #2933
Method: as §1

[10] = system: T20, Staphylococcus aureus #2935; experiment: microbe, parasite or virus in culture; design: CLSI broth microdilution MIC in MHB-II; conditions: Staphylococcus aureus, 18 h, read-out: MIC
T20 construct: #2935
Method: as §1

MraYSA (S. aureus MraY) = MraYSA (S. aureus MraY) (Staphylococcus aureus, UniProt Q2FZ93); experiment: fluorescence assay of dansylated lipid I formation; assay type: biochemical
MraYSA (S. aureus MraY), sequence (Q2FZ93 whole entry): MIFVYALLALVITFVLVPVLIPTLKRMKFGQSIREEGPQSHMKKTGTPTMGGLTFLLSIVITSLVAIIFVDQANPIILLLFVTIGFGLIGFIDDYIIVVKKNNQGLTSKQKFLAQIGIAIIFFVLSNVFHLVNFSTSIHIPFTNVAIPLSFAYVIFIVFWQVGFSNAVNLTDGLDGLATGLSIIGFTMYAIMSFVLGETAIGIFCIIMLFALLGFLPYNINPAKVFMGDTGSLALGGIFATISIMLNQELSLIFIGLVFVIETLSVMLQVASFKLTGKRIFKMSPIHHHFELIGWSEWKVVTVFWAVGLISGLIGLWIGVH

| Structure (SMILES) | MIC [5] [µg/mL] | MIC [6] [µg/mL] | MIC (Enterococcus faecalis 27) [µg/mL] | MIC (Enterococcus faecalis 21) [µg/mL] | MIC (Enterococcus faecium 7) [µg/mL] | MIC (Enterococcus faecalis 25) [µg/mL] | MIC (Enterococcus faecalis 29) [µg/mL] | MIC (Enterococcus faecalis 30) [µg/mL] | MIC (Enterococcus faecium 9) [µg/mL] | MIC (Enterococcus faecium 8) [µg/mL] | MIC [7] [µg/mL] | MIC (Enterococcus faecalis 28) [µg/mL] | MIC [8] [µg/mL] | MIC (Enterococcus faecium 10) [µg/mL] | MIC (Enterococcus faecalis 26) [µg/mL] | MIC (Enterococcus faecium 1) [µg/mL] | MIC [9] [µg/mL] | further results |
| --- | --- | --- | --- | --- | --- | --- | --- | --- | --- | --- | --- | --- | --- | --- | --- | --- | --- | --- |
| CN[C@H](CC(C)C)C(=O)N[C@H]1C(=O)N[C@@H](CC(N)=O)C(=O)N[C@H]2C(=O)N[C@H]3C(=O)N[C@H](C(=O)N[C@H](C(=O)O)c4cc(O)cc(O)c4-c4cc3ccc4O)[C@H](O)c3ccc(c(Cl)c3)Oc3cc2cc(c3O[C@@H]2O[C@H](CO)[C@@H](O)[C@H](O)[C@H]2O[C@H]2C[C@](C)(N)[C@H](O)[C@H](C)O2)Oc2ccc(cc2Cl)[C@H]1O [vancomycin] | 2 (≈ 1.38 µM) | 1 (≈ 0.69 µM) | 1 (≈ 0.69 µM) | 1 (≈ 0.69 µM) | 0.5 (≈ 0.345 µM) | 1 (≈ 0.69 µM) | 1 (≈ 0.69 µM) | 1 (≈ 0.69 µM) | 1 (≈ 0.69 µM) | 1 (≈ 0.69 µM) | 2 (≈ 1.38 µM) | 1 (≈ 0.69 µM) | 2 (≈ 1.38 µM) | 1 (≈ 0.69 µM) | 1 (≈ 0.69 µM) | 1 (≈ 0.69 µM) | 1 (≈ 0.69 µM) | MIC (S. aureus ATCC 29213; read-out: vancomycin MIC): 1 µg/mL (≈ 0.69 µM); MIC ([1]; read-out: vancomycin MIC): 128 µg/mL (≈ 88.3 µM); MIC ([2]; read-out: vancomycin MIC): 128 µg/mL (≈ 88.3 µM); MIC ([3]; read-out: vancomycin MIC): > 128 µg/mL; MIC (E. faecium ATCC 35667; read-out: vancomycin MIC): 1 µg/mL (≈ 0.69 µM); MIC ([4]; read-out: vancomycin MIC): 1 µg/mL (≈ 0.69 µM) |
| CC1(C)S[C@@H]2[C@H](NC(=O)[C@H](N)c3ccccc3)C(=O)N2[C@H]1C(=O)O [ampicillin] | 32 (≈ 91.6 µM) | 16 (≈ 45.8 µM) | 1 (≈ 2.86 µM) | 1 (≈ 2.86 µM) | 0.5 (≈ 1.43 µM) | 1 (≈ 2.86 µM) | 1 (≈ 2.86 µM) | 0.5 (≈ 1.43 µM) | > 128 | 128 (≈ 366 µM) | 16 (≈ 45.8 µM) | 1 (≈ 2.86 µM) | 16 (≈ 45.8 µM) | > 128 | 1 (≈ 2.86 µM) | > 128 | 32 (≈ 91.6 µM) | MIC (S. aureus ATCC 29213; read-out: ampicillin MIC): 1 µg/mL (≈ 2.86 µM); MIC ([1]; read-out: ampicillin MIC): 1 µg/mL (≈ 2.86 µM); MIC ([2]; read-out: ampicillin MIC): 128 µg/mL (≈ 366 µM); MIC ([3]; read-out: ampicillin MIC): 128 µg/mL (≈ 366 µM); MIC (E. faecium ATCC 35667; read-out: ampicillin MIC): 1 µg/mL (≈ 2.86 µM); MIC ([4]; read-out: ampicillin MIC): 4 µg/mL (≈ 11.4 µM); MIC [10]: 16 µg/mL (≈ 45.8 µM) |
| CCCCCCCCCCCCCCCC(=O)N[C@@H](CCCNC(=N)N)C(=O)NCc1ccc(CN[C@H](C(=O)O)[C@H](O[C@@H]2O[C@H](CN)[C@@H](O)[C@H]2O)[C@H]2O[C@@H](n3ccc(=O)[nH]c3=O)[C@H](O)[C@@H]2O)cc1 [compound 3, analogue 3] | 2 (≈ 2.08 µM) | 1 (≈ 1.04 µM) | 0.25 (≈ 0.26 µM) | 0.5 (≈ 0.52 µM) | 1 (≈ 1.04 µM) | 0.13 (≈ 0.135 µM) | 0.25 (≈ 0.26 µM) | 0.25 (≈ 0.26 µM) | 0.5 (≈ 0.52 µM) | 0.5 (≈ 0.52 µM) | 2 (≈ 2.08 µM) | < 0.06 | 1 (≈ 1.04 µM) | 1 (≈ 1.04 µM) | 0.13 (≈ 0.135 µM) | 1 (≈ 1.04 µM) | 1 (≈ 1.04 µM) | IC50 (MraYSA (S. aureus MraY)): 4 nM; MIC (S. aureus ATCC 29213; read-out: 3 MIC): 1 µg/mL (≈ 1.04 µM); MIC ([1]; read-out: 3 MIC): 0.5 µg/mL (≈ 0.52 µM); MIC ([2]; read-out: 3 MIC): 2 µg/mL (≈ 2.08 µM); MIC ([3]; read-out: 3 MIC): 0.5 µg/mL (≈ 0.52 µM); MIC (E. faecium ATCC 35667; read-out: 3 MIC): 1 µg/mL (≈ 1.04 µM); MIC ([4]; read-out: 3 MIC): 1 µg/mL (≈ 1.04 µM) |
